Assay results as given in PubChem BioAssay (NCI).
Values joined by “and” are separate entries in the source; they are usually repeats but may differ in a detail not shown here. Equal values may be shown once.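 1) Cells in 96-well plates. 2) Compound, 48 h, 5 concentrations. 3) Linear interpolation between surrounding doses. 4) Unreached endpoint = highest concentration. GI50 is the concentration that inhibits growth by half. TGI: concentration producing complete growth inhibition.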

How the values were obtained:
Test in all cases: DTP human tumour cell line panel, 48 h
[1] = test system: 786-0 renal
[2] = test system: TK-10 renal
[3] = test system: A498 renal
[4] = test system: UACC-62 melanoma
[5] = test system: SF-295 CNS
[6] = test system: PC-3 prostate
[7] = test system: UO-31 renal
[8] = test system: IGROV1 ovarian
[9] = test system: NCI-H226 lung
[10] = test system: MCF7 breast
[11] = test system: MDA-MB-231 breast
[12] = test system: MDA-MB-435
[13] = test system: K-562 leukemia
[14] = test system: NCI/ADR-RES ovarian
[15] = test system: OVCAR-5 ovarian
[16] = test system: SK-MEL-28 melanoma
[17] = test system: LOX IMVI melanoma
[18] = test system: SF-268 CNS
[19] = test system: HT29 colon
[20] = test system: NCI-H23 lung
[21] = test system: ACHN renal
[22] = test system: HCT-116 colon
[23] = test system: MALME-3M melanoma
[24] = test system: BT-549 breast
[25] = test system: NCI-H460 lung
[26] = test system: CAKI-1 renal
[27] = test system: HOP-92 NSCLC
[28] = test system: HS 578T breast
[29] = test system: SF-539 CNS
[30] = test system: MDA-N
[31] = test system: MOLT-4 leukemia
[32] = test system: HCT-15 colon
[33] = test system: SNB-19 CNS
[34] = test system: CCRF-CEM leukemia
[35] = test system: HCC-2998 colon
[36] = test system: SN12C renal
[37] = test system: M14 melanoma
[38] = test system: SK-OV-3 ovarian
[39] = test system: EKVX NSCLC
[40] = test system: HOP-62 NSCLC
[41] = test system: SK-MEL-2 melanoma
[42] = test system: COLO 205 colon
[43] = test system: RPMI-8226 leukemia
[44] = test system: U251 CNS
[45] = test system: OVCAR-4 ovarian
[46] = test system: RXF 393 renal
[47] = test system: SR leukemia
[48] = test system: SK-MEL-5 melanoma
[49] = test system: DU-145 prostate
[50] = test system: OVCAR-8 ovarian
[51] = test system: OVCAR-3 ovarian
[52] = test system: SNB-75 CNS
[53] = test system: T-47D breast
[54] = test system: KM12 colon
[55] = test system: UACC-257 melanoma
[56] = test system: A549 NSCLC
[57] = test system: NCI-H522 lung
[58] = test system: SW-620 colon

**Q.** `COc1cc2c(cc1OCCN1C(=O)c3cccc4cccc(c34)C1=O)N=C[C@@H]1CCCN1C2=O` was tested. Which GI50 [1] did it give?
**A.** 16.5 µM

**Q.** What about the TGI [1] of the same compound?
**A.** 14.7 µM and 33.9 µM

**Q.** What about the TGI [2] of the same compound?
**A.** 14.8 µM

**Q.** And the GI50 [3]?
**A.** 19.6 µM

**Q.** And the TGI [3]?
**A.** 16.6 µM and 42.8 µM

**Q.** What about the GI50 [4] of the same compound?
**A.** 17.8 µM

**Q.** What about the TGI [4] of the same compound?
**A.** 14.9 µM and 37.5 µM

**Q.** And the GI50 [5]?
**A.** 32 µM

**Q.** And the TGI [5]?
**A.** 50 µM and > 100 µM

**Q.** What about the GI50 [6] of the same compound?
**A.** 15 µM

**Q.** And the TGI [6]?
**A.** 13.6 µM and 28.2 µM

**Q.** What about the GI50 [7] of the same compound?
**A.** 16.8 µM

**Q.** What about the TGI [7] of the same compound?
**A.** 15.8 µM and 30.5 µM

**Q.** And the GI50 [8]?
**A.** 12.4 µM

**Q.** What about the TGI [8] of the same compound?
**A.** 11.6 µM and 25.6 µM

**Q.** What about the TGI [9] of the same compound?
**A.** 32.4 µM

**Q.** And the GI50 [10]?
**A.** 13.6 µM

**Q.** And the TGI [10]?
**A.** 18.2 µM and > 100 µM

**Q.** What about the GI50 [11] of the same compound?
**A.** > 100 µM

**Q.** And the TGI [11]?
**A.** 14.6 µM and > 100 µM

**Q.** And the GI50 [12]?
**A.** 16 µM

**Q.** And the TGI [12]?
**A.** 25 µM and 35.9 µM

**Q.** What about the GI50 [13] of the same compound?
**A.** 7.63 µM

**Q.** And the TGI [13]?
**A.** 10.9 µM and > 100 µM

**Q.** And the GI50 [14]?
**A.** 22.5 µM

**Q.** What about the TGI [14] of the same compound?
**A.** 45.8 µM and 56.3 µM

**Q.** And the GI50 [15]?
**A.** 23.9 µM

**Q.** What about the TGI [15] of the same compound?
**A.** 18.1 µM and 49.9 µM

**Q.** And the GI50 [16]?
**A.** 19.7 µM

**Q.** And the TGI [16]?
**A.** 16.3 µM and 49.3 µM

**Q.** What about the TGI [17] of the same compound?
**A.** 12.3 µM

**Q.** What about the TGI [18] of the same compound?
**A.** 15.3 µM

**Q.** What about the GI50 [19] of the same compound?
**A.** 14.4 µM

**Q.** And the TGI [19]?
**A.** 16.9 µM and 29.8 µM

**Q.** And the GI50 [20]?
**A.** 16.8 µM

**Q.** And the TGI [20]?
**A.** 20.2 µM and 32.3 µM

**Q.** What about the GI50 [21] of the same compound?
**A.** 19 µM

**Q.** And the TGI [21]?
**A.** 14.9 µM and 33 µM

**Q.** And the GI50 [22]?
**A.** 20.6 µM

**Q.** What about the TGI [22] of the same compound?
**A.** 14.5 µM and 45.4 µM

**Q.** And the GI50 [23]?
**A.** 11.7 µM

**Q.** And the TGI [23]?
**A.** 15.7 µM and 24.5 µM

**Q.** And the TGI [24]?
**A.** 16.9 µM

**Q.** And the GI50 [25]?
**A.** 15.5 µM

**Q.** And the TGI [25]?
**A.** 13.9 µM and 29.9 µM

**Q.** And the GI50 [26]?
**A.** 18.8 µM

**Q.** And the TGI [26]?
**A.** 19.8 µM and 36.2 µM

**Q.** What about the GI50 [27] of the same compound?
**A.** 19.5 µM

**Q.** And the TGI [27]?
**A.** 17.3 µM and 55.4 µM

**Q.** What about the GI50 [28] of the same compound?
**A.** 15.2 µM

**Q.** And the TGI [28]?
**A.** 19.9 µM and 35.8 µM

**Q.** And the TGI [29]?
**A.** 17.3 µM

**Q.** And the GI50 [30]?
**A.** 20.3 µM

**Q.** What about the TGI [30] of the same compound?
**A.** 14.8 µM and 45.8 µM

**Q.** What about the GI50 [31] of the same compound?
**A.** 42.2 µM

**Q.** And the TGI [31]?
**A.** 11 µM and > 100 µM

**Q.** What about the GI50 [32] of the same compound?
**A.** 18.6 µM

**Q.** What about the TGI [32] of the same compound?
**A.** 21.4 µM and 40.2 µM

**Q.** And the GI50 [33]?
**A.** 37.7 µM

**Q.** And the TGI [33]?
**A.** 30.2 µM and > 100 µM

**Q.** And the GI50 [34]?
**A.** 1.44 µM

**Q.** And the TGI [34]?
**A.** 23.1 µM and 19.5 µM

**Q.** What about the GI50 [35] of the same compound?
**A.** 14.5 µM

**Q.** And the TGI [35]?
**A.** 15.6 µM and 27.6 µM

**Q.** What about the TGI [36] of the same compound?
**A.** 14.7 µM

**Q.** And the GI50 [37]?
**A.** 22.5 µM

**Q.** What about the TGI [37] of the same compound?
**A.** 15.7 µM and 70.6 µM

**Q.** What about the TGI [38] of the same compound?
**A.** 46.5 µM

**Q.** And the GI50 [39]?
**A.** 13.8 µM

**Q.** And the TGI [39]?
**A.** 18.3 µM and 26.7 µM

**Q.** And the TGI [40]?
**A.** 47.5 µM

**Q.** What about the GI50 [41] of the same compound?
**A.** 16.6 µM

**Q.** What about the TGI [41] of the same compound?
**A.** 14.5 µM and 32.7 µM

**Q.** What about the GI50 [42] of the same compound?
**A.** 14.9 µM

**Q.** And the TGI [42]?
**A.** 15.1 µM and 30.6 µM

**Q.** And the GI50 [43]?
**A.** 26 µM

**Q.** What about the TGI [43] of the same compound?
**A.** 32 µM and > 100 µM

**Q.** And the GI50 [44]?
**A.** 14.2 µM

**Q.** What about the TGI [44] of the same compound?
**A.** 12.6 µM and > 100 µM

**Q.** And the TGI [45]?
**A.** 50 µM and 39 µM

**Q.** What about the GI50 [46] of the same compound?
**A.** 20.9 µM

**Q.** What about the TGI [46] of the same compound?
**A.** 15 µM and 36.3 µM

**Q.** What about the TGI [47] of the same compound?
**A.** > 100 µM

**Q.** What about the GI50 [48] of the same compound?
**A.** 13.1 µM

**Q.** And the TGI [48]?
**A.** 15.5 µM and 28.2 µM

**Q.** What about the GI50 [49] of the same compound?
**A.** 18.1 µM

**Q.** What about the TGI [49] of the same compound?
**A.** 17.4 µM and 35.9 µM

**Q.** What about the GI50 [50] of the same compound?
**A.** 16.6 µM

**Q.** What about the TGI [50] of the same compound?
**A.** 17.1 µM and 36.7 µM

**Q.** And the GI50 [51]?
**A.** 14.9 µM

**Q.** And the TGI [51]?
**A.** 13.1 µM and 28.2 µM

**Q.** What about the TGI [52] of the same compound?
**A.** 45 µM

**Q.** And the GI50 [53]?
**A.** 18.9 µM

**Q.** What about the TGI [53] of the same compound?
**A.** 28.2 µM and > 100 µM

**Q.** And the GI50 [54]?
**A.** 12.4 µM

**Q.** And the TGI [54]?
**A.** 50 µM and 24.9 µM

**Q.** And the GI50 [55]?
**A.** 18 µM

**Q.** And the TGI [55]?
**A.** 19 µM and 35.8 µM

**Q.** And the GI50 [56]?
**A.** 17.7 µM

**Q.** And the TGI [56]?
**A.** 17.1 µM and 53.1 µM

**Q.** And the GI50 [57]?
**A.** 1.58 µM

**Q.** And the TGI [57]?
**A.** 4.51 µM and 10.2 µM

**Q.** And the GI50 [58]?
**A.** 17.2 µM

**Q.** What about the TGI [58] of the same compound?
**A.** 15.8 µM and > 100 µM
